In the oligonucleotide strings, read from the 5' end, every base follows the letter of its sugar. An asterisk marks phosphorothioate; unmarked linkages are phosphodiester. Other units and linkages are bracketed, terminal groups are in braces. A string of capitals states the bases alone. e = 2'-O-(2-methoxyethyl) (MOE); [5mC] = 5-methylcytosine
Key:
IGFBP-1 = IGFBP-1 mRNA expression in HepG2 cells; format: cell-based, human; conditions: for IGFBP-1 (% UTC): HepG2, 100 nM oligomeric compound; for IGFBP1 mRNA: HepG2 cells, four hours, UTC = 100
follistatin = experiment: Follistatin mRNA expression in HepG2 cells; format: cell-based, human; conditions: for Follistatin (% UTC): HepG2, 100 nM oligomeric compound; for Follistatin mRNA: HepG2 cells, four hours, UTC = 100
IL-12 mRNA = IL-12 mRNA in LPS-activated primary murine macrophages; format: cell-based, mouse; conditions: for IL-12 mRNA expression, −IFN % UTC: 300 nM oligomeric compound and LPS, no IFN-gamma pretreatment, single experiment; for IL-12 mRNA expression, −IFN % UTC / IL-12 mRNA expression, +IFN % UTC: normalized to LPS-treated cells without oligomeric compound; for IL-12 mRNA expression, +IFN % UTC: 300 nM oligomeric compound, stimulation with IFN-gamma and LPS, average of 2 experiments; for IL-12 mRNA expression, % UTC: LPS, average of 3 treatments
[1] = Experiment 1, basal (no insulin)
[2] = Experiment 2, 1 nM insulin treated
[3] = Experiment 2, insulin treated: HepG2 cells transfected with oligomeric compound, 1 nM insulin for four hours, UTC + 1 nM insulin = 100

| Substance | IL-12 mRNA expression, −IFN % UTC (IL-12 mRNA) [% UTC] | IL-12 mRNA expression, +IFN % UTC (IL-12 mRNA) [% UTC] | other results |
| --- | --- | --- | --- |
| 338664 (antisense e[5mC]*eA*eG*eA*e[5mC]*eT*e[5mC]*e[5mC]*e[5mC]*eA*eA*e[5mC]*eT*eG*eA*e[5mC]*e[5mC]*eA*eG*eA) [compound 338664] | – | – | IGFBP-1 (% UTC) (IGFBP-1; [1]): 90 % UTC; IGFBP-1 (% UTC) (IGFBP-1; [2]): 100 % UTC; Follistatin (% UTC) (follistatin; [1]): 93 % UTC; Follistatin (% UTC) (follistatin; [2]): 84 % UTC |
| 328138 (eG*eA*eG*e[5mC]*eT*eG*e[5mC]*eT*e[5mC]*eA*eG*e[5mC]*eT*eG*eG*e[5mC]*e[5mC]*eA*eT*e[5mC]*eA; anti-miR) [compound 328138] | 277 | 31 | – |
| 327933 (antisense eA*eA*eG*eG*eG*eA*eT*eT*e[5mC]*e[5mC]*eT*eG*eG*eG*eA*eA*eA*eA*e[5mC]*eT*eG*eG*eA*e[5mC]) [compound 327933] | – | – | IGFBP-1 (% UTC) (IGFBP-1; [1]): 125 % UTC; IGFBP-1 (% UTC) (IGFBP-1; [2]): 179 % UTC; Follistatin (% UTC) (follistatin; [1]): 112 % UTC; Follistatin (% UTC) (follistatin; [2]): 185 % UTC |
| 341805 (antisense ACCCTTATCAGTTCTCCGTCCA; all 2'-MOE, all phosphorothioate, methylation of C not given here) [compound 341805] | – | – | IGFBP1 mRNA (IGFBP-1; [1]): 105; Follistatin mRNA (follistatin; [1]): 63 |
| 327911 (antisense eG*e[5mC]*eT*eA*e[5mC]*e[5mC]*eT*eG*e[5mC]*eA*e[5mC]*eT*eG*eT*eA*eA*eG*e[5mC]*eA*e[5mC]*eT*eT*eT*eT) [compound 327911] | – | – | IGFBP1 mRNA expression (IGFBP-1; [3]): 160; IGFBP1 mRNA (IGFBP-1; [1]): 157; Follistatin mRNA expression (follistatin; [3]): 71; Follistatin mRNA (follistatin; [1]): 81 |
| 327934 (antisense eG*eG*eT*eA*e[5mC]*eA*eA*eT*e[5mC]*eA*eA*e[5mC]*eG*eG*eT*e[5mC]*eG*eA*eT*eG*eG*eT) [compound 327934] | – | – | IGFBP-1 (% UTC) (IGFBP-1; [1]): 231 % UTC; IGFBP-1 (% UTC) (IGFBP-1; [2]): 244 % UTC; Follistatin (% UTC) (follistatin; [1]): 140 % UTC; Follistatin (% UTC) (follistatin; [2]): 103 % UTC |
| 328129 (antisense eA*eG*e[5mC]*e[5mC]*eT*e[5mC]*e[5mC]*eT*eT*e[5mC]*eT*eT*e[5mC]*eT*e[5mC]*eG*eT*eA*e[5mC]*eT*eA) [compound 328129] | 87 | 10 | – |
| 327912 (antisense eA*eA*e[5mC]*eT*eA*eT*eA*e[5mC]*eA*eA*eT*e[5mC]*eT*eA*e[5mC]*eT*eA*e[5mC]*e[5mC]*eT*e[5mC]*eA) [compound 327912] | 206 | 39 | – |
| 327927 (antisense eT*eG*eT*eA*eA*eA*e[5mC]*e[5mC]*eA*eT*eG*eA*eT*eG*eT*eG*e[5mC]*eT*eG*e[5mC]*eT*eA) [compound 327927] | 164 | 33 | – |
| 327921 (antisense e[5mC]*eT*eT*e[5mC]*e[5mC]*eA*eG*eT*e[5mC]*eG*eG*eG*eG*eA*eT*eG*eT*eT*eT*eA*e[5mC]*eA) [compound 327921] | 325 | 24 | IL-12 mRNA expression, % UTC (IL-12 mRNA; 75 nM, +IFN): 14 % UTC; IL-12 mRNA expression, % UTC (IL-12 mRNA; 75 nM, −IFN): 109 % UTC; IL-12 mRNA expression, % UTC (IL-12 mRNA; 150 nM, +IFN): 7 % UTC; IL-12 mRNA expression, % UTC (IL-12 mRNA; 150 nM, −IFN): 88 % UTC; IL-12 mRNA expression, % UTC (IL-12 mRNA; 300 nM, +IFN): 5 % UTC; IL-12 mRNA expression, % UTC (IL-12 mRNA; 300 nM, −IFN): 67 % UTC; IL-12 mRNA expression, % UTC (IL-12 mRNA; 600 nM, +IFN): 5 % UTC; IL-12 mRNA expression, % UTC (IL-12 mRNA; 600 nM, −IFN): 53 % UTC |
| 327931 (antisense eA*eA*e[5mC]*e[5mC]*eA*eT*eA*e[5mC]*eA*eA*e[5mC]*e[5mC]*eT*eA*e[5mC]*eT*eA*e[5mC]*e[5mC]*eT*e[5mC]*eA) [compound 327931] | 105 | 48 | – |
| 328133 (eT*eG*eA*eA*eG*eG*eT*eT*e[5mC]*eG*eG*eA*eG*eA*eT*eA*eG*eG*e[5mC]*eT*eA; anti-miR) [compound 328133] | 165 | 62 | – |
| 328137 (eG*eT*eA*eA*eG*e[5mC]*eG*e[5mC]*eA*eG*e[5mC]*eT*e[5mC]*e[5mC]*eA*e[5mC]*eA*eG*eG*e[5mC]*eT; anti-miR) [compound 328137] | 213 | 12 | – |
| 327928 (antisense eA*eA*e[5mC]*e[5mC]*eG*eA*eT*eT*eT*e[5mC]*eA*eG*eA*eT*eG*eG*eT*eG*e[5mC]*eT*eA*eG) [compound 327928] | 201 | 61 | – |
| 327967 (antisense eA*e[5mC]*eT*eG*eT*eA*e[5mC]*eA*eA*eA*e[5mC]*eT*eA*e[5mC]*eT*eA*e[5mC]*e[5mC]*eT*e[5mC]*eA) [compound 327967] | 203 | 43 | – |
| 328123 (antisense eT*eT*eA*e[5mC]*eA*eG*eG*eT*eG*e[5mC]*eT*eG*e[5mC]*eA*eA*e[5mC]*eT*eG*eG*eA*eA) [compound 328123] | 176 | 14 | – |
| 328110 (antisense eG*eA*eT*eA*eA*eA*eG*e[5mC]*e[5mC]*eA*eA*eT*eA*eA*eA*e[5mC]*eT*eG*eT*e[5mC]*eA) [compound 328110] | 221 | 8 | – |
| 327956 (antisense e[5mC]*eA*e[5mC]*eA*eG*eT*eT*eG*e[5mC]*e[5mC]*eA*eG*e[5mC]*eT*eG*eA*eG*eA*eT*eT*eA) [compound 327956] | 212 | 59 | – |
| 342673 (antisense eA*eG*eA*e[5mC]*eT*eA*eG*e[5mC]*eG*eG*eT*eA*eT*e[5mC]*eT*eT*eT*eA*eT*e[5mC]*e[5mC]*e[5mC]) [compound 342673] | 91 | – | – |
| 327917 (antisense eT*e[5mC]*eA*eA*e[5mC]*eA*eT*e[5mC]*eA*eG*eT*e[5mC]*eT*eG*eA*eT*eA*eA*eG*e[5mC]*eT*eA) [compound 327917] | 225 | 35 | – |
| 328117 (antisense eT*e[5mC]*e[5mC]*eA*e[5mC]*eA*eA*eA*eG*e[5mC]*eT*eG*eA*eA*e[5mC]*eA*eT*eG*eT*e[5mC]*eT) [compound 328117] | 162 | 72 | – |
| 328105 (antisense e[5mC]*e[5mC]*eT*e[5mC]*eA*eA*eT*eT*eA*eT*eT*eG*eG*eA*eA*eA*eT*e[5mC]*eA*e[5mC]*eA) [compound 328105] | 108 | 57 | – |

Reference: patent US8178506B2, “Oligomeric compounds and compositions for use in modulation of small non-coding RNAs” (Regulus Therapeutics Inc., priority 2003, dated 2012)
